According to ChEMBL document CHEMBL1145638, “Discovery of a novel submicromolar inhibitor of the lymphoid specific tyrosine phosphatase” (Bioorg Med Chem Lett, 2008):

Biological target: T1, Tyrosine-protein phosphatase non-receptor type 22 (Homo sapiens, UniProt Q9Y2R2)
T1 sequence (Q9Y2R2 whole entry): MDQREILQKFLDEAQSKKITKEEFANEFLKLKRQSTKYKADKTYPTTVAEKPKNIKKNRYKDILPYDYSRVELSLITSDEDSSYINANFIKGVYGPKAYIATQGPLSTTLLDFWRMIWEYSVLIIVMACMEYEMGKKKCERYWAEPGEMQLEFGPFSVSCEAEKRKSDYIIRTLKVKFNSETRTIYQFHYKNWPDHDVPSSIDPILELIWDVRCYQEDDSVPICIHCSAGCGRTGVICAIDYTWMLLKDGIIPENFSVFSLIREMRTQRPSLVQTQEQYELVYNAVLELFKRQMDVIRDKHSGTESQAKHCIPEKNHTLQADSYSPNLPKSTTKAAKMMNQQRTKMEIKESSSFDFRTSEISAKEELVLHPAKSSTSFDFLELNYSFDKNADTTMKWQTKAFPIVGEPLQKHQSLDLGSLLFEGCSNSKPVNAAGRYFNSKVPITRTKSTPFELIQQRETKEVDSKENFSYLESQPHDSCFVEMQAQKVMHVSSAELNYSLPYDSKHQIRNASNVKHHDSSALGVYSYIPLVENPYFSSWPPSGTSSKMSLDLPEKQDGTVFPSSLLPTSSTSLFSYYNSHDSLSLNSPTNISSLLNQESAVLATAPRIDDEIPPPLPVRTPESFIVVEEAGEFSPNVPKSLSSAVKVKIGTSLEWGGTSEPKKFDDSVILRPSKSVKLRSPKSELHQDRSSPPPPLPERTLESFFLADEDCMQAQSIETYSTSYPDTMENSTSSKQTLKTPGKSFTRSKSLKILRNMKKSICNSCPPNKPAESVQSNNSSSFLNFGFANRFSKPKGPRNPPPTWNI
Assay: Inhibition of lymphoid specific tyrosine phosphatase

IC50 [µM]	SMILES
> 44	COC(=O)c1cc(-c2ccc(/C=C3\SC(=O)N(CC(=O)O)C3=O)o2)ccc1O
> 44	COC(=O)c1cc(-c2ccc(/C=N/N3CC(=O)NC3=O)o2)ccc1O
5.1	O=C(O)CCN1C(=O)S/C(=C\c2ccc(-c3ccc(O)c(C(=O)O)c3)o2)C1=O
0.98	O=C(O)CCN1C(=O)/C(=C\c2ccc(-c3nc4ccccc4s3)o2)SC1=S
2.8	O=C(O)CN1C(=O)S/C(=C\c2ccc(-c3ccc(O)c(C(=O)O)c3)s2)C1=O
4.3	COC(=O)c1cc(-c2ccc(/C=C3\SC(=O)N(CCC(=O)O)C3=O)o2)ccc1O
0.39	COC(=O)c1cc(-c2ccc(/C=C3\SC(=O)N(CCC(=O)O)C3=O)s2)ccc1O
36	O=C(O)CN1C(=O)CN(/N=C/c2ccc(-c3ccc(O)c(C(=O)O)c3)o2)C1=O
44	COC(=O)CCN1C(=O)S/C(=C\c2ccc(-c3ccc(O)c(C(=O)OC)c3)o2)C1=O
1.8	COC(=O)CN1C(=O)S/C(=C\c2ccc(-c3ccc(O)c(C(=O)O)c3)s2)C1=O
8.7	O=C(O)CN1C(=O)/C(=C/c2ccc(-c3ccc(O)c(C(=O)O)c3)o2)SC1=S
4.3	COC(=O)c1cc(-c2ccc(/C=C3\SC(=S)N(CC(=O)O)C3=O)s2)ccc1O
5.6	O=C(O)CN1C(=O)S/C(=C\c2ccc(-c3ccc(O)c(C(=O)O)c3)o2)C1=O
4.8	COC(=O)CN1C(=O)S/C(=C\c2ccc(-c3ccc(O)c(C(=O)O)c3)o2)C1=O
> 44	O=C(O)COc1ccc(-c2ccc(/C=C3\SC(=S)N(CC(=O)O)C3=O)o2)cc1C(=O)O
> 44	COC(=O)CCN1C(=O)S/C(=C\c2ccc(-c3ccc(O)c(C(=O)OC)c3)s2)C1=O
> 44	COC(=O)CN1C(=O)S/C(=C\c2ccc(-c3ccc(O)c(C(=O)OC)c3)s2)C1=O
> 44	COC(=O)CN1C(=O)S/C(=C\c2ccc(-c3ccc(O)c(C(=O)OC)c3)o2)C1=O
5.9	O=C(O)CCN1C(=O)S/C(=C\c2ccc(-c3ccc(O)c(C(=O)O)c3)s2)C1=O
18	COC(=O)c1cc(-c2ccc(/C=C3\SC(=O)N(CC(=O)O)C3=O)s2)ccc1O
21	COC(=O)c1cc(-c2ccc(/C=C3\SC(=S)N(CC(=O)O)C3=O)o2)ccc1O

More lines, now with the values behind:

SMILES	IC50 [µM]
CC(C(=O)O)N1C(=O)/C(=C/C=C/c2ccco2)SC1=S (stereo not given)	2.5
O=C1CN(/N=C/c2ccc(-c3ccc(O)c(C(=O)O)c3)o2)C(=O)N1	> 44
CC(C)C(C(=O)O)N1C(=O)/C(=C/C=C/c2ccco2)SC1=S (stereo not given)	1.9
Cc1ccc(NC(=O)CN2C(=O)S/C(=C\c3cccn3-c3cccc(C(=O)O)c3)C2=O)c(C)c1	1
COC(=O)c1cc(-c2ccc(/C=N/N3CC(=O)NC3=O)s2)ccc1O	> 44
Cc1ccc(NC(=O)CN2C(=O)S/C(=C\c3ccc(-c4cccc(C(=O)O)c4C)o3)C2=O)cc1 (stereo in doubt; form 1)	3.3
O=C(O)CN1C(=O)/C(=C/c2ccc(-c3ccc(O)c(C(=O)O)c3)s2)SC1=S	5.4
O=C(O)C(Cc1ccccc1)N1C(=O)/C(=C/C2=c3ccccc3=CCC2)SC1=S (stereo not given)	14
Cc1cccc(C)c1NC(=O)CN1C(=O)S/C(=C\c2cccn2-c2cccc(C(=O)O)c2)C1=O	4.8
O=C1CN(/N=C/c2ccc(-c3ccc(O)c(C(=O)O)c3)s2)C(=O)N1	34
O=C(O)CN1C(=O)CN(/N=C/c2ccc(-c3ccc(O)c(C(=O)O)c3)s2)C1=O	> 44
Cc1ccc(NC(=O)CN2C(=O)S/C(=C\c3ccc(-c4cccc(C(=O)O)c4C)o3)C2=O)cc1 (stereo in doubt; form 2)	3.5
O=C(O)CCCN1C(=O)/C(=C\c2ccc(-c3nc4ccccc4s3)o2)SC1=S	1.3
Cc1ccccc1NC(=O)CN1C(=O)S/C(=C\c2cccn2-c2cccc(C(=O)O)c2)C1=O	1.9
